Assay results reported in patent US6596771B2, “Drugs for treating viral infections” (priority 2001, dated 2003).
Values after ≈ are worked out from the molar mass of the structure shown. Read-outs that look alike come from different tables or passages of the source.

Experiments:
cowpox virus [1] = format: cell-based
Vaccinia Virus [2] = format: cell-based
cowpox virus [3] = format: cell-based; remark: listed apart in the source
Vaccinia Virus [4] = format: cell-based; remark: listed apart in the source
stationary HFF cells = experiment: Neutral Red Uptake Assay (toxicity); format: cell-based, human
cowpox = system: cowpox; design: species or system female BALB/c mice; conditions: mouse, in vivo

Compound | concentration at which active in these cells (cowpox virus [1]) | EC50 (Vaccinia Virus [2]) | EC50 (cowpox virus [3]) | EC90 (Vaccinia Virus [2]) | EC90 (Vaccinia Virus [4]) | CC50 (HFF cells) | EC90 (cowpox virus [3]) | CC50 (stationary HFF cells) | Lung titer on Day 3 (cowpox)
Nc1ccn(C[C@@H](CO)OCP(=O)(O)O)c(=O)n1 [CDV, reference compound] | about 12.0 microgram microgram/mL | 1.80 microgram/mL | 2.30 microgram/mL |  |  |  |  |  | 
O=S(=O)(NC12CC3CC(CC(C3)C1)C2)NS(=O)(=O)NC12CC3CC(CC(C3)C1)C2 [Example 1, N,N^1-Bis(tricyclo[3.3.1.1^3,7]dec-1-yl)imidodisulfamide] |  |  |  | 1.40 microgram/mL | 0.15 µg/mL (≈ 0.338 µM) | 77.80 microgram/mL |  |  | 
O=S(=O)([N-]S(=O)(=O)NC12CC3CC(CC(C3)C1)C2)NC12CC3CC(CC(C3)C1)C2.[Na+] [Example 11] |  | 0.04 microgram/mL | 0.50 microgram/mL | 0.11 microgram/mL |  |  | 2.10 microgram/mL | 87.6 microgram/mL | 6.6±1.3
